# Measurements taken from paper PMC8253220, “Molecular design, synthesis and in vitro biological evaluation of thienopyrimidine–hydroxamic acids as chimeric kinase HDAC inhibitors: a challenging approach to combat cancer” (Journal of Enzyme Inhibition and Medicinal Chemistry, 2021).
# Where “and” joins values, the source holds several entries; their conditions need not be identical. Equal values may be shown once.
# What was measured:
# TK-10 = assay: NCI one-dose screen; type: cell-based, human; conditions: Renal TK-10, 10 µM single dose
# Procedure, shortened: (§1)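 At 10 μM, a single concentration, compounds were evaluated for antiproliferative effect in the NCI 60-line screen, with growth expressed relative to untreated control cells.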
# UACC-257 = assay: NCI one-dose screen; type: cell-based, human; conditions: Melanoma UACC-257, 10 µM single dose
# Procedure, shortened: (§2)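 Compounds were tested at a single dose of 10 μM across the full NCI-60 cell line panel. Growth was expressed as percent growth relative to untreated control cells, reported as percent inhibition.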
# PC-3 = assay: NCI one-dose screen; type: cell-based, human; conditions: Prostate PC-3, 10 µM single dose
# Procedure, shortened: as §2
# NCI-H226 = assay: NCI one-dose screen; type: cell-based, human; conditions: NSCLC NCI-H226, 10 µM single dose
# Procedure, shortened: (§3)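 Each cell line received compound at 10 μM as part of the NCI one-dose protocol. Values reflect growth inhibition percent calculated from growth relative to untreated controls.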
# SK-OV-3 = assay: NCI one-dose screen; type: cell-based, human; conditions: Ovarian SK-OV-3, 10 µM single dose
# Procedure, shortened: as §1
# NCI-H322M = assay: NCI one-dose screen; type: cell-based, human; conditions: NSCLC NCI-H322M, 10 µM single dose
# Procedure, shortened: as §1
# SW-620 = assay: NCI one-dose screen; type: cell-based, human; conditions: Colon SW-620, 10 µM single dose
# Procedure, shortened: as §2
# HT29 = assay: NCI one-dose screen; type: cell-based, human; conditions: Colon HT29, 10 µM single dose
# Procedure, shortened: as §1
# UO-31 = assay: NCI one-dose screen; type: cell-based, human; conditions: for Growth Percent: Renal UO-31, 10 µM single dose
# Procedure, shortened: as §3
# HOP-62 = assay: NCI one-dose screen; type: cell-based, human; conditions: NSCLC HOP-62, 10 µM single dose
# Procedure, shortened: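 One concentration (10 μM) applied to each line of the full NCI-60 panel; percent growth compared against untreated cells.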
# VEGFR-2 = VEGFR-2 (Homo sapiens, UniProt P35968); assay: In vitro VEGFR-2 tyrosine kinase inhibitory assay (Z'-LYTE, SelectScreen); type: biochemical; conditions: for inhibition at 0.0001 µM: 0.1 nM compound; for inhibition at 0.0001 µM / inhibition at 0.001 µM / inhibition at 0.01 µM / inhibition at 0.1 µM / inhibition at 1 µM: 10 μM ATP, read-out: % Inhibition mean, KDR (VEGFR2); for inhibition at 0.001 µM: 1 nM compound; for inhibition at 0.01 µM: 10 nM compound; for inhibition at 0.1 µM: 100 nM compound; for inhibition at 1 µM: 1000 nM compound; for IC50: read-out: IC50 in enzyme assays VEGFR-2
# Method: The target compounds were evaluated for their in vitro inhibitory activities against EGFR, VEGFR-2, and HDAC6. The EGFR and VEGFR-2 inhibitory assays were performed at Thermo Fischer Scientific, Madison, WI, USA (SelectScreenServices@thermofisher.com). The HDAC inhibitory assays were performed at BPS Bioscience, San Diego, CA, USA (www.bpsbioscience.com). Initially, all of the synthesised target compounds were evaluated for their percent inhibitory activity against EGFR, VEGFR-2, and HDACs at 10 µM single dose concentration, in which their mean percent inhibition is summarised in (Figure 5, Tables 1 and [2]). Representative compounds were evaluated for their percent inhibitory activity against EGFR and VEGFR-2 at 6 different concentrations (0.1 nM, 1 nM, 10 nM, 100 nM, 1 µM, 10 µM) to subsequently calculate their IC50 values (Table 3). Additionally, all of the synthesised target compounds were submitted to the National Cancer Institute “NCI” Bethesda, Maryland, USA (www.dtp.nci.nih.gov), to evaluate theirs in vitro antiproliferative activities against NCI 60- cancer cell line panel.
# In vitro enzyme inhibition determination for the synthesised compounds was carried out in Thermo Fischer Scientific, Madison, WI, USA (SelectScreenServices@thermofisher.com). The EGFR and VEGFR-2 tyrosine kinase % inhibitory activity at a single-dose concentration of 10 µM was performed initially then representative compounds were evaluated at single-dose concentrations of (0.1 nM, 1 nM, 10 nM, 100 nM, 1 µM) using ZYLTE technology. A fluorescence-based, coupled-enzyme format is employed in the biochemical assay and depends on the sensitivity of proteolytic cleavage to non-phosphorylated and phosphorylated peptides. Then IC50 values for selected compounds were determined by GraphPad Prism at Misr international university.
# Sequence of VEGFR-2 (P35968 20-1356): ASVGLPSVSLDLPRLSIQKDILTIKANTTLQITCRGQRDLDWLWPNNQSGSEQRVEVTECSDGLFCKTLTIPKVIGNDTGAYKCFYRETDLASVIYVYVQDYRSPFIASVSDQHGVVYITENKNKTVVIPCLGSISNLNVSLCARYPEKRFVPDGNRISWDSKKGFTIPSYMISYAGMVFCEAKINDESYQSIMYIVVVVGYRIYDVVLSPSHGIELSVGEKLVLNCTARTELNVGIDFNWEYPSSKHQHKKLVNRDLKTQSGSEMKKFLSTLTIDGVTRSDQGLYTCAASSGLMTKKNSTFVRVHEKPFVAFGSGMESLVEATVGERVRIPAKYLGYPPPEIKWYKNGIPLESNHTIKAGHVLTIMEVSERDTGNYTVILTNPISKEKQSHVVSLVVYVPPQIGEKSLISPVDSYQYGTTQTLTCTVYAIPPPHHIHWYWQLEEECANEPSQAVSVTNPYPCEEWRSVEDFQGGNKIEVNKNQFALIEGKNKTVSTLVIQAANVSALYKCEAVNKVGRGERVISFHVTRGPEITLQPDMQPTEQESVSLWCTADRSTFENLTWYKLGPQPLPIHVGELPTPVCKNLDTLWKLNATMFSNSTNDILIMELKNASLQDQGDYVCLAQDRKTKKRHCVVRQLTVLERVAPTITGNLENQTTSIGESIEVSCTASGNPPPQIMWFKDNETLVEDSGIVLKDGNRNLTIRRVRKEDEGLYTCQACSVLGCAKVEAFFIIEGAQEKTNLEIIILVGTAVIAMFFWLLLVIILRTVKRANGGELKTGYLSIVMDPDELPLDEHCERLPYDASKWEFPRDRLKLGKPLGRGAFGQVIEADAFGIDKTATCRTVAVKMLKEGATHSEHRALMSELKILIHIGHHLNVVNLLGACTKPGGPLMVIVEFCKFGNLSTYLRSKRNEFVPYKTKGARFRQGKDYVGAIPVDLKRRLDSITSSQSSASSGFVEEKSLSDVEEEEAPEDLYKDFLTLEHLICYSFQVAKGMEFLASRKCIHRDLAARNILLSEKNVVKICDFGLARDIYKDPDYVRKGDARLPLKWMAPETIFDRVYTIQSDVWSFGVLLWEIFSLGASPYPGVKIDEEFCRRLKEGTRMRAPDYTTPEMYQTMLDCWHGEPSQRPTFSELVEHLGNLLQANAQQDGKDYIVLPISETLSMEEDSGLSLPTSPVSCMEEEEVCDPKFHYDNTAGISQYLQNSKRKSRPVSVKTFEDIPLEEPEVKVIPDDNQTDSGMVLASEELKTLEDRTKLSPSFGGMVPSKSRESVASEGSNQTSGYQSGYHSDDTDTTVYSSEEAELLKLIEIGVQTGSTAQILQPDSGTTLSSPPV
Structure (SMILES),Growth Percent (TK-10),Growth Percent (UACC-257),Growth Percent (PC-3),Growth Percent (NCI-H226),Growth Percent (SK-OV-3),Growth Percent (NCI-H322M),Growth Percent (SW-620),Growth Percent (HT29),Growth Percent (UO-31),Growth Percent (HOP-62),inhibition at 0.0001 µM (VEGFR-2),inhibition at 0.001 µM (VEGFR-2),inhibition at 0.01 µM (VEGFR-2),inhibition at 0.1 µM (VEGFR-2),inhibition at 1 µM (VEGFR-2),Mean % inhibition VEGFR-2 (VEGFR-2; 10 µM single dose),inhibition at 10 µM (VEGFR-2; 10 µM single dose),IC50 (VEGFR-2),"inhibition at 10 µM (UO-31; Homo sapiens, renal UO-31, 10 μM)"
"Cc1c(C(=O)NCCCC(=O)NO)sc2ncnc(Nc3ccc(NC(=O)Nc4cccc(C(F)(F)F)c4)cc3)c12 [Compound 12c, 1–(4-(6-((4-(hydroxyamino)-4-oxobutyl)carbamoyl)-5-methylthieno[2,3-d]pyrimidin-4-ylamino)phenyl)-3–(3-(trifluoromethyl)phenyl)urea]",117.7% and 117.79%,107.0%,111.1% and 111.12%,105.6% and 105.63%,113.9% and 113.94%,105.0% and 105.06%,109.4% and 109.44%,104.0% and 104.09%,89.6% and 89.64%,103.3%,5%,10%,5%,36%,90%,100%,103%,185 nM,–
"Cc1c(C(=O)NO)sc2ncnc(Nc3cccc4[nH]cnc34)c12 [Compound 15a, 4-(1H-benzo[d]imidazol-4-ylamino)-N-hydroxy-5-methylthieno[2,3-d]pyrimidine-6-carboxamide]",113.8% and 113.84%,112.4% and 112.47%,104.3% and 104.34%,99.3% and 99.31%,124.5% and 124.53%,99.4% and 99.43%,103.6% and 103.66%,103.9% and 103.93%,80.6% and 80.64%,104.2%,–,–,–,–,–,–,36%,–,–
"Cc1c(C(=O)NO)sc2ncnc(Nc3ccccc3)c12 [Compound 15b, N-hydroxy-5-methyl-4-(phenylamino)thieno[2,3-d]pyrimidine-6-carboxamide]",123.2% and 123.28%,107.0% and 107.03%,100.1% and 100.15%,89.3% and 89.32%,125.8% and 125.83%,101.8% and 101.81%,89.5% and 89.53%,100.5% and 100.52%,72.7% and 72.78%,103.6% and 103.61%,–,–,–,–,–,–,32%,–,–
"Cc1c(C(=O)NO)sc2ncnc(Nc3ccc(Cl)cc3)c12 [Compound 15c, 4–(4-chlorophenylamino)-N-hydroxy-5-methylthieno[2,3-d]pyrimidine-6-carboxamide]",154.5% and 154.58%,110.0% and 110.09%,97.6% and 97.64%,85.6% and 85.66%,93.4% and 93.42%,97.2% and 97.24%,102.6% and 102.65%,101.8% and 101.84%,71.2%,92.8% and 92.81%,7%,4%,7%,15%,39%,–,87%,5580 nM,28.8%
"Cc1c(C(=O)NO)sc2ncnc(Nc3ccc(F)c(Cl)c3)c12 [Compound 15d, 4–(3-chloro-4-fluorophenylamino)-N-hydroxy-5-methylthieno[2,3-d]pyrimidine-6-carboxamide]",118.5% and 118.53%,109.9% and 109.91%,110.4% and 110.42%,103.2% and 103.24%,114.4% and 114.45%,107.6% and 107.66%,108.2% and 108.22%,102.5% and 102.54%,77.0% and 77.07%,99.3%,–,–,–,–,–,–,54%,–,–
"Cc1c(C(=O)NCCC(=O)NO)sc2ncnc(Nc3ccccc3)c12 [Compound 19b, N-(3-(hydroxyamino)-3-oxopropyl)-5-methyl-4-(phenylamino)thieno[2,3-d]pyrimidine-6-carboxamide]",108.2% and 108.29%,105.0% and 105.04%,105.1% and 105.18%,89.4% and 89.44%,122.0% and 122.03%,99.0% and 99.06%,99.6% and 99.64%,104.9% and 104.96%,86.4% and 86.41%,100.4% and 100.46%,–,–,–,–,–,–,13%,–,–
"Cc1c(C(=O)NCCC(=O)NO)sc2ncnc(Nc3ccc(Cl)cc3)c12 [Compound 19c, 4–(4-chlorophenylamino)-N-(3-(hydroxyamino)-3-oxopropyl)-5-methylthieno[2,3-d]pyrimidine-6-carboxamide]",115.9% and 115.96%,115.4%,110.4% and 110.47%,106.8% and 106.83%,120.6% and 120.62%,105.7% and 105.79%,102.5% and 102.53%,102.2% and 102.22%,79.9% and 79.99%,105.8% and 105.87%,–,–,–,–,–,–,21%,–,–
"Cc1c(C(=O)NCCC(=O)NO)sc2ncnc(Nc3ccc(F)c(Cl)c3)c12 [Compound 19d, 4–(3-chloro-4-fluorophenylamino)-N-(3-(hydroxyamino)-3-oxopropyl)-5-methylthieno[2,3-d]pyrimidine-6-carboxamide]",107.2%,99.7% and 99.74%,103.5% and 103.52%,104.0% and 104.06%,129.2% and 129.24%,108.1% and 108.11%,101.5%,104.1%,84.8% and 84.81%,104.5% and 104.52%,–,–,–,–,–,–,26%,–,–
"Cc1c(C(=O)NCCCC(=O)NO)sc2ncnc(Nc3ccccc3)c12 [Compound 20b, N-(4-(hydroxyamino)-4-oxobutyl)-5-methyl-4-(phenylamino)thieno[2,3-d]pyrimidine-6-carboxamide]",111.2% and 111.26%,103.9% and 103.93%,108%,97.5% and 97.52%,125.1% and 125.12%,107.3% and 107.33%,102.0% and 102.07%,102.3% and 102.36%,88.2% and 88.29%,100.8% and 100.81%,–,–,–,–,–,–,25%,–,–
"Cc1c(C(=O)NCCCC(=O)NO)sc2ncnc(Nc3ccc(Cl)cc3)c12 [Compound 20c, 4–(4-chlorophenylamino)-N-(4-(hydroxyamino)-4-oxobutyl)-5-methylthieno[2,3-d]pyrimidine-6-carboxamide]",152.2% and 152.23%,112.8% and 112.86%,101.4% and 101.49%,92.0% and 92.02%,112.9% and 112.92%,101.3% and 101.35%,102.3% and 102.37%,108.2% and 108.21%,81.5% and 81.51%,102.5% and 102.52%,–,–,–,–,–,–,35%,–,–
